Source: article PMC8625052, “The Antiarrhythmic Activity of Novel Pyrrolidin-2-one Derivative S-75 in Adrenaline-Induced Arrhythmia” (Pharmaceuticals, 2021)
Marks after values point to notes of the source that are not given here.

Columns and labels:
[1] = tested on: post-reperfusion arrhythmia of isolated rat heart; test: Antiarrhythmic activity in the post-reperfusion model in isolated rat heart; conditions: reperfusion; for Extrasystoles (%) / Fibrillations (%) / Tachycardia (%): % occurrence; for Arrhythmia Severity Index: Bernauer scale
Description: Hearts form Wistar rats were isolated and immersed in Chenoweth–Koelle solution (120 mM NaCl; 5 mM KCl; 2.2 mM MgCl2; […]; 2.4 mM CaCl2; 10 mM glucose). Hearts were perfused according to the Langendorff model under a constant pressure of 70 cm H2O (6.87 kPa) with a solution at 37 °C, pH 7.4, constantly oxygenated (O2/CO2, 19:1) using the MyoHEART Langendorff System-900MH (Danish Myo Technology, Hinnerup, Denmark), which monitored the ECG. After 20 min stabilization period, acute myocardial ischemia was induced locally by installing a clamp on the left coronary artery (ischemic period). After 15 min, the clamp was removed, and ECG changes were monitored for 30 min (reperfusion period). The tested compound was added to the perfusion solution 15 min before coronary artery clamping. The point scale described by Bernauer was used to assess the antiarrhythmic activity in this arrhythmia model. The occurrence of a specific type of heart rhythm disturbance during the reperfusion period was scored according to the following scale: • occurrence of less than 10 extrasystoles—1 point; • occurrence of more than 10 extrasystoles—2 points; • presence of ventricular tachycardia—3 points; • presence of fibrillation—4 points.

[2] = tested on: adrenaline-induced arrhythmia in rats; test: Prophylactic antiarrhythmic activity in adrenaline-induced arrhythmia; assay type: in vivo, rat
[3] = tested on: adrenaline-induced arrhythmia in rats; test: Therapeutic antiarrhythmic activity in adrenaline-induced arrhythmia; assay type: in vivo, rat
Description: The experiments were carried out according to the method described by Szekeres and Papp. The heart rhythm disturbances were evoked by intravenous administration of adrenaline (20 µg/kg) to anesthetized rats (thiopental, 75 mg/kg). The tested compound was administered iv immediately after the injection of adrenaline, at dose 5 mg/kg. The ECG was recorded during the first 2 min and in the 5th, 10th, and 15th min after the adrenaline injection. […] The criterion of antiarrhythmic activity was the decrease or complete absence of extrasystoles, atrioventricular blocks and bradycardia in the ECG recording in comparison with the control group.

[4] = biological target: Ca2+ channel (L, verapamil site); test: Radioligand binding assay for Ca2+ channel ([3H]-D888); set-up: species or system rat; conditions: rat cortex tissue; [3H]-D888
Description: The radioligand binding studies for K^+ and Ca^2+ channels were performed commercially by Eurofins Cerep (Celle l’Evescault, France) using testing procedures described elsewhere. […]

[5] = tested on: aconitine-induced arrhythmia in rats; test: Prophylactic antiarrhythmic activity in aconitine-induced arrhythmia; assay type: in vivo, rat; conditions: rat, in vivo, 5 mg/kg
[6] = tested on: isolated ischemic rat hearts; set-up: method as in PMID 9228191; conditions: cited from earlier work
[7] = tested on: arrhythmia caused by cardiac ischemia in dogs; set-up: method as in PMID 7528295; conditions: dogs after myocardial infarction; cited from earlier work
[8] = adrenaline 20 μg/kg iv, dose 0.25 mg/kg iv 15 min before, % occurrence
[9] = 5 mg/kg iv immediately after adrenaline, % occurrence

Structure (SMILES): CCCCc1oc2ccccc2c1C(=O)c1cc(I)c(OCCN(CC)CC)c(I)c1 [Amiodarone]
- Extrasystoles (%) ([1]; concentration 10^−9 M): 100%
- Fibrillations (%) ([1]; concentration 10^−9 M): 66.7%
- Tachycardia (%) ([1]; concentration 10^−9 M): 100%
- Arrhythmia Severity Index ([1]; concentration 10^−9 M): 7.7

Structure (SMILES): COc1ccccc1OCCNCC(O)COc1cccc2[nH]c3ccccc3c12 (stereo not drawn) [Carvedilol, reference compound]
- ED50 ([2]; Rattus norvegicus, prophylactic, iv 15 min before adrenaline 20 μg/kg, Litchfield and Wilcoxon, limits in brackets, read-out: ED50 (a dose producing a 50% inhibition of ventricular contractions)): 0.36 mg/kg
- Blocks (%) [2, 8]: 100%
- Bradycardia (%) [2, 8]: 16.6%
- Extrasystoles (%) [2, 8]: 100%
- Mortality (%) [2, 8]: 66.7%
- decrease of the number of adrenaline-induced extrasystoles ([3]; 5 mg/kg iv immediately after adrenaline 20 µg/kg, compared to the vehicle-treated group): 95.2%
- Blocks (%) [3, 9]: 83.3%
- Mortality (%) [3, 9]: 16.7%

Structure (SMILES): COc1ccc(CCN(C)CCCC(C#N)(c2cc(OC)c(OC)c(OC)c2)C(C)C)cc1OC [D-600, reference compound]
- IC50 [4]: 0.037 µM

Structure (SMILES): CCCNCC(O)COc1ccccc1C(=O)CCc1ccccc1 (stereo not drawn) [Propafenone, reference compound]
- Blocks (%) [5]: 83.3%
- Bradycardia (%) [5]: 100%
- Extrasystoles (%) [5]: 66.7%
- Fibrillations (%) [5]: 33.3%
- Mortality (%) [5]: 16.6%
- Extrasystoles (%) ([1]; concentration 10^−11 M): 100%
- Fibrillations (%) ([1]; concentration 10^−11 M): 33.3%
- Tachycardia (%) ([1]; concentration 10^−11 M): 66.7%
- Arrhythmia Severity Index ([1]; concentration 10^−11 M): 6.7

Structure (SMILES): C=C[C@H]1C[N@@]2CC[C@H]1C[C@@H]2[C@@H](O)c1ccnc2ccc(OC)cc12 [Quinidine]
- Extrasystoles (%) ([1]; concentration 10^−6 M): 83.3%
- Fibrillations (%) ([1]; concentration 10^−6 M): 0%
- Tachycardia (%) ([1]; concentration 10^−6 M): 50%
- Arrhythmia Severity Index ([1]; concentration 10^−6 M): 2.3 *

Structure (SMILES): COc1cccc(OC)c1OCCNCC1COc2ccccc2O1 (stereo not drawn) [WB 4101]
- reduction of the incidence of ventricular fibrillation / arrhythmias [6]: 49%

Structure (SMILES): Cc1ccc(N(CC2=NCCN2)c2cccc(O)c2)cc1 [phentolamine]
- reduction of the incidence of ventricular fibrillation / arrhythmias [6]: 32%

Structure (SMILES): COc1cc2nc(N3CCN(C(=O)c4ccco4)CC3)nc(N)c2cc1OC [prazosin]
- reduction of the incidence of ventricular fibrillation / arrhythmias [6]: 83%
- animals in which arrhythmia caused by cardiac ischemia was prevented [7]: 78%
